These results are taken from patent US11384060B2, “Amide compounds and use thereof” (ALPHALA CO., LTD., priority 2017, dated 2022).

Read-outs that look alike come from different tables or passages of the source.

For experiment [1], the target named is T1, glucagon receptor (GCGR) (Homo sapiens, UniProt P47871).
T1 construct: expressed in transfected cells; host or cells: CHO-K1 cells overexpressing GCGR (membrane fractions)
The experiment in a line: I125-glucagon binding assay (competition, GCGR membrane fractions). An outline of the steps:
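Competition of 0.0625 nM (final) I^125-glucagon for 30 min at 25° C, after 5 min compound preincubation, using 7.5 μg/well GCGR-overexpressing CHO-K1 membranes in 50 mM Tris pH 7.4, 0.5% BSA. Filtration onto PEI-coated GF/B, micro-beta counting, and non-linear regression gave IC50.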

Experiment [2] deals with T2, glucagon receptor (GCGR) overexpressed CHO-K1 cells or human primary hepatocytes (Homo sapiens, UniProt P47871).
T2 construct: expressed in transfected cells; host or cells: GCGR overexpressed CHO-K1 cells or human primary hepatocytes (endogenous receptor)
The experiment in a line: Glucagon cAMP inhibition assay (Cisbio cAMP Dynamic 2 HTRF). The format is cell-based. The gist of the method: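 HTRF read-out of glucagon-induced cAMP, with IC50 from non-linear regression. Cells (GCGR CHO-K1 or human primary hepatocytes) in HBSS/0.1% BSA/800 nM IBMX took compound dilutions for 30 min (final DMSO 1%), then EC50-level glucagon for 30 min at room temperature, then a 60 min lysis/detection step.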
(In general: Time-resolved FRET reads energy transfer from a long-lived donor to a nearby acceptor.)

Setting [3] is: competition with I125-glucagon 0.0625 nM, membrane fractions of GCGR overexpressed CHO-K1 cells.
The mark [4] stands for this setting: inhibition of glucagon (EC50 concentration) induced cAMP production.

T1 sequence (P47871 26-477): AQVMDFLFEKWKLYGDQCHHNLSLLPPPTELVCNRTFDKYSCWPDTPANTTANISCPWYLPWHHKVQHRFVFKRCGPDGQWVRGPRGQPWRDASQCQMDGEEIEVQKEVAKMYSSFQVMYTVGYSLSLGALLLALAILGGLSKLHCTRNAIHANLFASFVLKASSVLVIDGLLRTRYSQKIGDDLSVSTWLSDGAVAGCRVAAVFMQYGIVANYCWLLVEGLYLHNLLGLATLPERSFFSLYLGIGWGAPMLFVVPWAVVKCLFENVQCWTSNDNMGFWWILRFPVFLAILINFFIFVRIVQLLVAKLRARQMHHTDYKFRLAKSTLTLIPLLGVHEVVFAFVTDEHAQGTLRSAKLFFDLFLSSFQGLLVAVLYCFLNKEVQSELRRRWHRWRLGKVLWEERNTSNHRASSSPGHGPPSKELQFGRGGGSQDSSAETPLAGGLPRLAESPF
T2 sequence (P47871 26-477): as above

On to `CC[C@H](C)[C@@H](COc1ccc(-c2nnc(-c3ccccc3)o2)cc1)Nc1ccc(C(=O)NCCC(=O)O)cc1` [Compound 1-46, 3-(4-(((2S,3S)-3-methyl-1-(4-(5-phenyl-1,3,4-oxadiazol-2-yl)phenoxy)pentan-2-yl)amino)benzamido)propanoic Acid], for which the half-maximal inhibitory concentration (IC50) (usually the concentration that inhibits the measured activity by half) in experiment [1] (setting [3]) stood at 0.601 µM. Also, the “IC50 cAMP” value in experiment [2] (setting [4]) was found to be 5441 nM.
In turn, `CC(C)[C@@H](COc1ccc(-c2ccc(Cl)cc2Cl)cn1)Nc1ccc(C(=O)NCCC(=O)O)cc1` [Compound 15-17, (S)-3-(4-((1-((5-(2,4-dichlorophenyl)pyridin-2-yl)oxy)-3-methylbutan-2-yl)amino)benzamido)propanoic Acid] registered an IC50 in experiment [1] of 0.216 µM. Besides, the “IC50 cAMP” value in experiment [2] was determined as 196 nM.
In experiment [1], `CCCC[C@H](Cc1ccc(-c2ccc(C(C)(C)C)cc2)cc1)Nc1ccc(C(=O)NCCC(=O)O)cc1` [Compound 19-7, (R)-3-(4-((1-(4′-(tert-butyl)-[1,1′-biphenyl]-4-yl)hexan-2-yl)amino)benzamido)propanoic Acid] displayed an IC50 of 0.299 µM. For the same molecule, in experiment [2], the “IC50 cAMP” value came to 731 nM.
As for `COC(=O)CCNC(=O)c1ccc(N[C@@H](CC(C)C)C(=O)Nc2ccc(-c3cc4ccccc4[nH]3)cc2)cc1` [Compound 23-28, Methyl (S)-3-(4-((1-((4-(1H-indol-2-yl)phenyl)amino)-4-methyl-1-oxopentan-2-yl)amino)benzamido)propanoate], the IC50 in experiment [1] was 6.94 µM. Also, the “IC50 cAMP” value in experiment [2] turned out to be 179 nM.
With `COc1cc(OC[C@@H](Nc2ccc(C(=O)NCCC(=O)O)cc2)C(C)C)ccc1-c1cc2ccccc2o1` [Compound 13-5, (S)-3-(4-((1-(4-(benzofuran-2-yl)-3-methoxyphenoxy)-3-methylbutan-2-yl)amino)benzamido)propanoic Acid], in experiment [1] (setting [3]), the IC50 stood at 0.111 µM. Further, in experiment [2] (setting [4]), the “IC50 cAMP” value came out at 112 nM.
In experiment [1] (setting [3]), `CC(C)[C@@H](COc1cnc(-c2ccc(C(F)(F)F)cc2Cl)nc1)Nc1ccc(C(=O)NCCC(=O)O)cc1` [Compound 12-4] yielded an IC50 of 0.539 µM. Also, the “IC50 cAMP” value in experiment [2] (setting [4]) is listed as 9828 nM.
Molecule `CC(C)(C)[C@@H](COc1ccc(-c2cc3ccccc3o2)cc1)Nc1ccc(C(=O)NCCC(=O)O)cc1` [Compound 1-40, (S)-3-(4-((1-(4-(benzofuran-2-yl)phenoxy)-3,3-dimethylbutan-2-yl)amino)benzamido)propanoic Acid] came in with an IC50 in experiment [1] (setting [3]) of 0.195 µM. Moreover, the “IC50 cAMP” value in experiment [2] (setting [4]) turned out to be 235.3 nM.
Consider `CCOC(=O)CCNC(=O)c1ccc(N[C@H](Cc2ccc(-c3cc4ccccc4o3)cc2)C(=O)Nc2ccc(C(F)(F)F)cc2)cc1` [Compound 24-19, Ethyl (R)-3-(4-((3-(4-(benzofuran-2-yl)phenyl)-1-oxo-1-((4-(trifluoromethyl)phenyl)amino)propan-2-yl)amino)benzamido)propanoate], for which, in experiment [1], the half-maximal inhibitory concentration (IC50) was found to be 1.37 µM. In experiment [2], the “IC50 cAMP” value was found to be 538.4 nM.
`CCC(C)[C@@H](COc1ccc(-c2ccc(C(F)(F)F)cc2)cc1)Nc1ccc(C(=O)NCCC(=O)O)cc1` (stereo partly drawn) [Compound 1-5, 3-(4-(((2S)-3-methyl-1-((4′-(trifluoromethyl)-[1,1′-biphenyl]-4-yl)oxy)pentan-2-yl)amino)benzamido)propanoic Acid] came in with an IC50 in experiment [1] (setting [3]) of 0.213 µM. Also, the “IC50 cAMP” value in experiment [2] (setting [4]) is reported as 839 nM.
`COc1cnc(-c2ccc([C@@H](COc3ccc(-c4cc5ccccc5o4)cn3)Nc3ccc(C(=O)NCCS(=O)(=O)O)cc3)cc2)nc1` [Compound 15-35, (S)-2-(4-((2-((5-(benzofuran-2-yl)pyridin-2-yl)oxy)-1-(4-(5-methoxypyrimidin-2-yl)phenyl)ethyl)amino)benzamido)ethane-1-sulfonic Acid] returned a half-maximal inhibitory concentration (IC50) in experiment [1] of 0.584 µM. Further, in experiment [2], the “IC50 cAMP” value is >30000 nM.
For `CCOC(=O)CCNC(=O)c1ccc(N[C@@H](COc2ccc(-c3nc4ccccc4s3)cc2)C(C)C)cc1` [Compound 1-51, Ethyl (R)-3-(4-((1-(4-(benzo[d]thiazol-2-yl)phenoxy)-3-methylbutan-2-yl)amino)benzamido)propanoate], the IC50 in experiment [1] (cell prints its own unit uM under a nM head) is > 30 µM. Besides, in experiment [2] (setting [4]), the “IC50 cAMP” value was 197 nM.
